From ChEMBL document CHEMBL2346648, “A series of thiazole derivatives bearing thiazolidin-4-one as non-competitive ADAMTS-5 (aggrecanase-2) inhibitors” (Bioorg Med Chem Lett, 2013)

Legend:
[1] = target: T1, A disintegrin and metalloproteinase with thrombospondin motifs 4 (Bos taurus) (UniProt Q9TT93); conditions: 30 uM
T1 sequence (whole entry): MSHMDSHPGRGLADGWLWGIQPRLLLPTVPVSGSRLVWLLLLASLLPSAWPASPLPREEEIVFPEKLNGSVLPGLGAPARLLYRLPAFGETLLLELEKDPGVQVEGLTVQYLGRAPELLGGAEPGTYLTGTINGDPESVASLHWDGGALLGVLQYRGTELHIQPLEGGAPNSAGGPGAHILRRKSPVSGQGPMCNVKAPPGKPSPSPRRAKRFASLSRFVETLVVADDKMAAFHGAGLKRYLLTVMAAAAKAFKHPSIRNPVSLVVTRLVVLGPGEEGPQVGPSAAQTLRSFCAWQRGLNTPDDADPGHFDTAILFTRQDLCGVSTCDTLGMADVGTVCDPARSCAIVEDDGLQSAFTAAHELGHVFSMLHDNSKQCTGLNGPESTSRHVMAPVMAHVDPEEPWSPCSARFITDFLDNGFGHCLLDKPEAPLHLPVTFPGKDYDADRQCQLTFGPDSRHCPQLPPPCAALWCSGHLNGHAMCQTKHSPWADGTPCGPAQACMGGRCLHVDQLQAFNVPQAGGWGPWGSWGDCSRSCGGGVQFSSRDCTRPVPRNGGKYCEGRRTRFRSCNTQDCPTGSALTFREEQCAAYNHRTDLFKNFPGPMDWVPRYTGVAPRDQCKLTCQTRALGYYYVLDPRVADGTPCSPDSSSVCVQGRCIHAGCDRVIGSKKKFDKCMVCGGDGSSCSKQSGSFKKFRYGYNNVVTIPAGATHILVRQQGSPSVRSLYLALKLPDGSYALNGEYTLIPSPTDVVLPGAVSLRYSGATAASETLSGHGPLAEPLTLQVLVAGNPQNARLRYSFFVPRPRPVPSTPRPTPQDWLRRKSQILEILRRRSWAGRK
Description: Ex vivo inhibition of ADAMTS-4-mediated aggrecan degradation in IL-1-stimulated bovine cartilage explant at 30 uM

[2] = target: T2, A disintegrin and metalloproteinase with thrombospondin motifs 5 (Bos taurus) (UniProt Q9TT92); assay: Ex vivo inhibition of ADAMTS-5-mediated aggrecan degradation in IL-1-stimulated bovine cartilage explant at 30 uM
T2 sequence (whole entry): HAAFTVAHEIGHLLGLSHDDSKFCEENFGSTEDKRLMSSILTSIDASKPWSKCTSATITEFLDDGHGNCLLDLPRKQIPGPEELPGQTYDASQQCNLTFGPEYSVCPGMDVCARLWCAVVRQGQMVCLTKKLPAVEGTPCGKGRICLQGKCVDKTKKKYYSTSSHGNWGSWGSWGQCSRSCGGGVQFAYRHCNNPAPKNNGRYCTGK

[3] = target: T3, A disintegrin and metalloproteinase with thrombospondin motifs 4 (Homo sapiens, UniProt O75173); assay: Inhibition of ADAMTS-4 (unknown origin)
T3 sequence (O75173 whole entry): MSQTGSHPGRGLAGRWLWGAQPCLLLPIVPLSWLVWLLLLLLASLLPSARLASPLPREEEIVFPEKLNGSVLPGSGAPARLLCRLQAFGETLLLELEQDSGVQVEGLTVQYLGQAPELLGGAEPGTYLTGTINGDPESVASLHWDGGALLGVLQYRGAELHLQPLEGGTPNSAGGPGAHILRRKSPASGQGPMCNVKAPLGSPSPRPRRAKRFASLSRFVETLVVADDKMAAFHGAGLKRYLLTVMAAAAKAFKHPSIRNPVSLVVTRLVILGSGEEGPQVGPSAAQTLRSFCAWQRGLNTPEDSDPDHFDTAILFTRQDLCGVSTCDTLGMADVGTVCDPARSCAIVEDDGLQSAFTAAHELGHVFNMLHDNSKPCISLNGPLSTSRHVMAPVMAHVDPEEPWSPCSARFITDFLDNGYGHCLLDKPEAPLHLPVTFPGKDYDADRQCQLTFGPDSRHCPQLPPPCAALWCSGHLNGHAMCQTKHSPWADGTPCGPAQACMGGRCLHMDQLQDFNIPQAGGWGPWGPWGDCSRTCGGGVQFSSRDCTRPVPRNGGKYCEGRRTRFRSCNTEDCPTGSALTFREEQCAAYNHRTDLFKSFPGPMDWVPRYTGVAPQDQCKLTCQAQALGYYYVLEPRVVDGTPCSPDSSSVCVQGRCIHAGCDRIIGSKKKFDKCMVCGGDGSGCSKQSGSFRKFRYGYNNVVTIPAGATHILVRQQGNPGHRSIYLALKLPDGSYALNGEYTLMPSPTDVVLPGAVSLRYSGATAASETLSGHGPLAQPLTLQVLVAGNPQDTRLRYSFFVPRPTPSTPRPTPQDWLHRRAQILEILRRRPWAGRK

[4] = target: T4, A disintegrin and metalloproteinase with thrombospondin motifs 5 (Homo sapiens, UniProt Q9UNA0); assay: Inhibition of ADAMTS-5 (unknown origin)
T4 sequence (Q9UNA0 whole entry): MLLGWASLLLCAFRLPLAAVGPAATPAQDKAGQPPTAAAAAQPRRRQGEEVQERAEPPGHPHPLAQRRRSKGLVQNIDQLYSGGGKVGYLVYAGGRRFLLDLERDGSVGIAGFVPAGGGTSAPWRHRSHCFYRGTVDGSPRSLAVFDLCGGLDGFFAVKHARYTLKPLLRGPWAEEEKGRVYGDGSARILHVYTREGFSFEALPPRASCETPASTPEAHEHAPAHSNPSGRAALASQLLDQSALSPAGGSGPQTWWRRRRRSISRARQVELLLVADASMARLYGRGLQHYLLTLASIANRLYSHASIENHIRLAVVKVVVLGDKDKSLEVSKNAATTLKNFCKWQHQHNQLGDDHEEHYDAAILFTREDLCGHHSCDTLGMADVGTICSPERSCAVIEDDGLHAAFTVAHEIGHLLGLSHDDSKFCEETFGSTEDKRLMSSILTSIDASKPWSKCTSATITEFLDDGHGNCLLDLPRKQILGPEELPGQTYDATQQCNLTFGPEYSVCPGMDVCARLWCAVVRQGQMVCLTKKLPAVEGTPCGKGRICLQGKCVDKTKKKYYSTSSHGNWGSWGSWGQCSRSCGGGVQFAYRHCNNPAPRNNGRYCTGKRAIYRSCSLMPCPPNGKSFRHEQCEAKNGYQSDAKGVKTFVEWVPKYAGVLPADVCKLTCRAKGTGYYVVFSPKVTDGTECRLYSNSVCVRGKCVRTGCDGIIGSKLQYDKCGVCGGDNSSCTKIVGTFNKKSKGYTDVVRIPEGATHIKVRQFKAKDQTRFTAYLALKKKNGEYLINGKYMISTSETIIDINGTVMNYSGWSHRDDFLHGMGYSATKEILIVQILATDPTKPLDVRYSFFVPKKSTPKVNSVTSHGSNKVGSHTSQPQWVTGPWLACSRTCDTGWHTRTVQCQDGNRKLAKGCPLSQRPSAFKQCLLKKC

O=C(NO)C1(S(=O)(=O)c2ccc(Oc3ccc(Cl)cc3)cc2)CCN(Cc2ccccc2)CC1
inhibition [1]: 91%
inhibition [2]: 91%
IC50 [3]: 1 µM
IC50 [4]: 0.42 µM
